From paper PMC8286840, “Identifying SARS-CoV-2 antiviral compounds by screening for small molecule inhibitors of Nsp3 papain-like protease” (Biochemical Journal, 2021)
Structures can show the parent of a compound that is named as a salt. Where two headings read alike, the source gives them in different places.

How the values were obtained:
[1] = molecular target: T1, SARS-CoV-2 PLpro (nsp3 1564–1878) (Severe acute respiratory syndrome coronavirus 2, UniProt P0DTD1); test: biochemical; set-up: FRET-quenched peptide (Pro3) cleavage by PLpro, 10 min pre-incubation, slope over 20 min, normalised to no-compound control; settings: low concentration screen, read-out: % of control remaining
[2] = molecular target: T1, SARS-CoV-2 PLpro (nsp3 1564–1878); test: biochemical; set-up: FRET-quenched peptide (Pro3) cleavage by PLpro, 10 min pre-incubation, slope over 20 min, normalised to no-compound control; settings: high concentration screen, read-out: % of control remaining

With `CC(C)=CCC[C@]1(C)C=Cc2c(O)c3c(c(CC=C(C)C)c2O1)O[C@]12C(=C[C@@H]4C[C@H]1C(C)(C)O[C@@]2(C/C=C(/C)C(=O)O)C4=O)C3=O` [Gambogic Acid] as the compound, how does the remaining activity at 1.25 µM ([1]; Well no.=3723) read?
Its remaining activity at 1.25 µM is 94.4%.

What about the remaining activity at 1.25 µM ([1]; Well no.=6926) of the same compound?
The remaining activity at 1.25 µM was 96.6%.

And the remaining activity at 3.75 µM ([2]; Well no.=3723)?
The remaining activity at 3.75 µM was 97.8%.

What about the remaining activity at 3.75 µM ([2]; Well no.=6926) of the same compound?
Its remaining activity at 3.75 µM is 91.9%.

Which remaining activity at 1.25 µM ([1]; Well no.=5219) does the source give for `COC(=O)CCSCc1ccc(-c2onc(C)c2NC(=O)OC(C)c2ccccc2Cl)cc1` (stereo not drawn) [Ki16198] here?
The remaining activity at 1.25 µM was 89.4%.

What about the remaining activity at 3.75 µM ([2]; Well no.=5219) of the same compound?
Its remaining activity at 3.75 µM is 96.1%.

For `Nc1nc(N)c2nc(-c3ccccc3)c(N)nc2n1` [Triamterene], which remaining activity at 1.25 µM ([1]; Well no.=1525) is on record?
Its remaining activity at 1.25 µM is 94%.

And the remaining activity at 3.75 µM ([2]; Well no.=1525)?
Its remaining activity at 3.75 µM is 91.1%.

How did the remaining activity at 1.25 µM ([1]; Well no.=902) turn out when `CCCC(C(=O)OCCN(CC)CC)(c1ccccc1)c1ccccc1` [SKF-525A hydrochloride] was run?
Its remaining activity at 1.25 µM is 105%.

And the remaining activity at 3.75 µM ([2]; Well no.=902)?
The remaining activity at 3.75 µM was 101%.

`Cc1c(-c2cnccn2)ssc1=S` [Oltipraz] was tested. Which remaining activity at 1.25 µM ([1]; Well no.=2049) did it give?
The remaining activity at 1.25 µM was 109%.

And the remaining activity at 3.75 µM ([2]; Well no.=2049)?
Its remaining activity at 3.75 µM is 112%.

What does the source list for `Nc1ccc(-c2cccc3c(=O)cc(N4CCOCC4)oc23)cc1` [PI 828 - 2-(4-Morpholinyl)-8-(4-aminopheny)l-4H-1-benzopyran-4-one]?
remaining activity at 1.25 µM ([1]; Well no.=2628): 98.1%; remaining activity at 3.75 µM ([2]; Well no.=2628): 102%

Which results are given for `CCCCCCCC/C=C\CCCCCCCCCCC(=O)O` [12(Z) Heneicosenoic acid]?
remaining activity at 1.25 µM ([1]; Well no.=4452): 94%; remaining activity at 3.75 µM ([2]; Well no.=4452): 102%

With `CCn1cc(C(=O)O)c(=O)c2cc(F)c(N3CCNCC3)nc21` [Enoxacin] as the compound, how does the remaining activity at 1.25 µM ([1]; Well no.=2026) read?
The remaining activity at 1.25 µM was 103%.

What about the remaining activity at 3.75 µM ([2]; Well no.=2026) of the same compound?
Its remaining activity at 3.75 µM is 106%.

Which remaining activity at 1.25 µM ([1]; Well no.=5776) does the source give for `Cc1[nH]c2ccccc2c1C1=C(NCCc2ccc(F)cc2)C(=O)N(C)C1=O` [IM-12] here?
Its remaining activity at 1.25 µM is 99.9%.

And the remaining activity at 3.75 µM ([2]; Well no.=5776)?
Its remaining activity at 3.75 µM is 100%.

Which results are given for `COc1ccc(/C=C/C(=O)c2c(O)cc(OC)cc2OC)cc1` [Flavokawain A]?
remaining activity at 1.25 µM ([1]; Well no.=3607): 104%; remaining activity at 3.75 µM ([2]; Well no.=3607): 105%

How did the remaining activity at 1.25 µM ([1]; Well no.=5949) turn out when `CN(C)c1ccnc2sc3c(=O)n(N4CCCCCC4)cnc3c12` [3-(1-azepanyl)-9-(dimethylamino)pyrido[3',2':4,5]thieno[3,2-d]pyrimidin-4(3H)-one] was run?
Its remaining activity at 1.25 µM is 92.3%.

And the remaining activity at 3.75 µM ([2]; Well no.=5949)?
The remaining activity at 3.75 µM was 93.5%.

How did the remaining activity at 1.25 µM ([1]; Well no.=6354) turn out when `CCOc1cc(/C=C2/C(=O)N(c3ccccc3)N=C2C)cc(Cl)c1OCC(=O)OC` [SJ-172550] was run?
The remaining activity at 1.25 µM was 91.1%.

What about the remaining activity at 3.75 µM ([2]; Well no.=6354) of the same compound?
The remaining activity at 3.75 µM was 90.9%.

How did the remaining activity at 1.25 µM ([1]; Well no.=749) turn out when `Cc1cc(O)c2c(c1)C(=O)c1cc(O)cc(O)c1C2=O` [Emodin] was run?
Its remaining activity at 1.25 µM is 98.9%.

What about the remaining activity at 1.25 µM ([1]; Well no.=3282) of the same compound?
Its remaining activity at 1.25 µM is 92%.

And the remaining activity at 3.75 µM ([2]; Well no.=749)?
Its remaining activity at 3.75 µM is 96.3%.

What about the remaining activity at 3.75 µM ([2]; Well no.=3282) of the same compound?
The remaining activity at 3.75 µM was 93.4%.

For `CCOC(=O)N1CCC(=C2c3ccc(Cl)cc3CCc3cccnc32)CC1` [Loratadine], which remaining activity at 1.25 µM ([1]; Well no.=933) is on record?
Its remaining activity at 1.25 µM is 96.2%.

What about the remaining activity at 1.25 µM ([1]; Well no.=2274) of the same compound?
The remaining activity at 1.25 µM was 89.1%.

And the remaining activity at 1.25 µM ([1]; Well no.=7337)?
Its remaining activity at 1.25 µM is 98.6%.

What about the remaining activity at 3.75 µM ([2]; Well no.=933) of the same compound?
The remaining activity at 3.75 µM was 98.6%.

What about the remaining activity at 3.75 µM ([2]; Well no.=2274) of the same compound?
The remaining activity at 3.75 µM was 89.3%.

And the remaining activity at 3.75 µM ([2]; Well no.=7337)?
The remaining activity at 3.75 µM was 102%.

`COC(=O)[C@H](CCCCn1cccc1CCC(=O)O)NC(=O)CNC(C)=O` [CEP dipeptide 1] was tested. Which remaining activity at 1.25 µM ([1]; Well no.=8606) did it give?
Its remaining activity at 1.25 µM is 98.6%.

And the remaining activity at 3.75 µM ([2]; Well no.=8606)?
Its remaining activity at 3.75 µM is 96.4%.

How did the remaining activity at 1.25 µM ([1]; Well no.=653) turn out when `CCC1(C)CC(=O)NC1=O` (stereo not drawn) [Ethosuximide] was run?
The remaining activity at 1.25 µM was 96.4%.

And the remaining activity at 3.75 µM ([2]; Well no.=653)?
Its remaining activity at 3.75 µM is 97.7%.

Which results are given for `C/N=C(/NC#N)NCCSCc1csc(NC(=N)N)n1` [Tiotidine]?
remaining activity at 1.25 µM ([1]; Well no.=1877): 98.5%; remaining activity at 3.75 µM ([2]; Well no.=1877): 98.9%

Which results are given for `CN1CCc2ccccc2Cc2[nH]c3ccccc3c2CC1` [LE 300]?
remaining activity at 1.25 µM ([1]; Well no.=1027): 101%; remaining activity at 3.75 µM ([2]; Well no.=1027): 101%

Which remaining activity at 1.25 µM ([1]; Well no.=4268) does the source give for `CCCC/C=C\CCCCCCCC(=O)O` [9(Z)-Tetradecenoic acid] here?
Its remaining activity at 1.25 µM is 102%.

What about the remaining activity at 3.75 µM ([2]; Well no.=4268) of the same compound?
Its remaining activity at 3.75 µM is 98%.

With `Cn1c(=O)c2[nH]c(-c3ccccc3)nc2n(C)c1=O` [1,3-Dimethyl-8-phenylxanthine] as the compound, how does the remaining activity at 1.25 µM ([1]; Well no.=952) read?
The remaining activity at 1.25 µM was 103%.

And the remaining activity at 3.75 µM ([2]; Well no.=952)?
Its remaining activity at 3.75 µM is 99.2%.

With `O=c1cc(-c2ccc(O)c(O)c2)oc2cc(O)cc(O)c12` [Luteolin] as the compound, how does the remaining activity at 1.25 µM ([1]; Well no.=837) read?
Its remaining activity at 1.25 µM is 96.9%.

And the remaining activity at 1.25 µM ([1]; Well no.=3318)?
The remaining activity at 1.25 µM was 97.2%.

What about the remaining activity at 3.75 µM ([2]; Well no.=837) of the same compound?
Its remaining activity at 3.75 µM is 102%.

And the remaining activity at 3.75 µM ([2]; Well no.=3318)?
The remaining activity at 3.75 µM was 98.3%.

Which remaining activity at 1.25 µM ([1]; Well no.=8338) does the source give for `O=C1c2c(O)cccc2C([C@@H]2O[C@H](CO)[C@@H](O)[C@H](O)[C@H]2O)c2cc(CO)cc(O)c21` (stereo partly drawn) [Aloin] here?
Its remaining activity at 1.25 µM is 99.2%.

And the remaining activity at 3.75 µM ([2]; Well no.=8338)?
The remaining activity at 3.75 µM was 97.8%.

`[N-]=[N+]=Nc1ccc(C(=O)CSC[C@H](NC(=O)CC[C@H](N)C(=O)O)C(=O)NCC(=O)O)cc1` [S-(p-Azidophenacyl)glutathione] was tested. Which remaining activity at 1.25 µM ([1]; Well no.=105) did it give?
Its remaining activity at 1.25 µM is 107%.

What about the remaining activity at 3.75 µM ([2]; Well no.=105) of the same compound?
Its remaining activity at 3.75 µM is 110%.

For `Oc1cccc(O)c1O` [Pyrogallol], which remaining activity at 1.25 µM ([1]; Well no.=6975) is on record?
The remaining activity at 1.25 µM was 104%.

And the remaining activity at 3.75 µM ([2]; Well no.=6975)?
Its remaining activity at 3.75 µM is 105%.

Which remaining activity at 1.25 µM ([1]; Well no.=310) does the source give for `O=C1O/C(=C/Br)CCC1c1cccc2ccccc12` (stereo not drawn) [Bromoenol lactone] here?
Its remaining activity at 1.25 µM is 93%.

And the remaining activity at 3.75 µM ([2]; Well no.=310)?
The remaining activity at 3.75 µM was 96.9%.

With `COc1ccc2c(c1O)-c1c(OC)c(OC)cc3c1[C@H](C2)N(C)CC3` [(+)-Isocorydine hydrochloride] as the compound, how does the remaining activity at 1.25 µM ([1]; Well no.=3244) read?
The remaining activity at 1.25 µM was 93.2%.

What about the remaining activity at 3.75 µM ([2]; Well no.=3244) of the same compound?
Its remaining activity at 3.75 µM is 95.5%.

What does the source list for `COc1cc2c(N3CCN(C(=O)Nc4ccc(OC(C)C)cc4)CC3)ncnc2cc1OCCCN1CCCCC1` [Tandutinib]?
remaining activity at 1.25 µM ([1]; Well no.=2851): 104%; remaining activity at 3.75 µM ([2]; Well no.=2851): 104%

What does the source list for `O=C(O)CSc1cc(NS(=O)(=O)c2ccc(Br)cc2)c2ccccc2c1O` [UMI-77]?
remaining activity at 1.25 µM ([1]; Well no.=6454): 95.1%; remaining activity at 3.75 µM ([2]; Well no.=6454): 93.1%

What does the source list for `C=C(C)[C@@H]1CC=C(C(=O)O)CC1` [Perillic acid]?
remaining activity at 1.25 µM ([1]; Well no.=3429): 93.1%; remaining activity at 3.75 µM ([2]; Well no.=3429): 93.2%

What does the source list for `CC(=O)Nc1nc(C)c(-c2ccc(Cl)c(S(=O)(=O)NCCO)c2)s1` [PIK-93]?
remaining activity at 1.25 µM ([1]; Well no.=4911): 95.7%; remaining activity at 3.75 µM ([2]; Well no.=4911): 96.9%

Which results are given for `CNc1ccc2oc(C[C@H]3O[C@@]4(CC[C@H]3C)O[C@H]([C@H](C)C(=O)c3ccc[nH]3)[C@H](C)C[C@H]4C)nc2c1C(=O)O` [Antibiotic A-23187]?
remaining activity at 1.25 µM ([1]; Well no.=3079): 103%; remaining activity at 3.75 µM ([2]; Well no.=3079): 104%

For `O=C(/C=C/c1ccc(O)c(O)c1)O[C@@H]1C[C@@](O)(C(=O)O)C[C@@H](O)[C@@H]1O` [Neochlorogenic acid], which remaining activity at 1.25 µM ([1]; Well no.=6490) is on record?
Its remaining activity at 1.25 µM is 98%.

And the remaining activity at 3.75 µM ([2]; Well no.=6490)?
Its remaining activity at 3.75 µM is 98.3%.

For `CCCC(=O)OCC[N+](C)(C)C` [Butyrylcholine], which remaining activity at 1.25 µM ([1]; Well no.=1738) is on record?
Its remaining activity at 1.25 µM is 103%.

What about the remaining activity at 3.75 µM ([2]; Well no.=1738) of the same compound?
The remaining activity at 3.75 µM was 100%.

Which results are given for `CC(C)(CCCCCC(O)CCCCCC(C)(C)C(=O)O)C(=O)O` [ETC-1002]?
remaining activity at 1.25 µM ([1]; Well no.=8628): 101%; remaining activity at 3.75 µM ([2]; Well no.=8628): 98.8%
